Laboratory results published in patent US12611402B2, “Compounds and their use for the treatment of ALPHA1-antitrypsin deficiency” (CENTESSA PHARMACEUTICALS (UK) LIMITED, priority 2019, dated 2026).

What was measured:
human M A1AT = target: T1, human M A1AT (Homo sapiens, UniProt P01009); test: A1AT cell secretion assay using HEK-M cells (ELISA); format: cell-based; conditions: 10 μM, 48 h
T1 construct: expressed in transfected cells; host or cells: HEK-M cells (transfected HEK-EBNA)
Experimental: (§1) HEK-M cells, a human embryonic kidney cell line stably transfected with M A1AT, were plated into 96 well plates (3.0×10^5 cells/ml with 200 μl of media/well) overnight at 37° C. in a humidified atmosphere containing 5% CO2. Following incubation cells were washed with 200 μl serum-free media three times and media was replaced with serum-free media containing vehicle, 10 μM suberanilohydroxamic acid (SAHA) or a compound of Examples 1-16 in replicates of six for 48 h in a 37° C. incubator in a final volume of 200 μl. At the end of the incubation step the supernatants were removed from the wells, centrifuged at 1000×g at 4° C. for 10 min and were assayed for human A1AT levels by ELISA (Human Serpin A1/α1 antitrypsin duo set ELISA, R& D Systems, DY1268) per manufacturer's instructions.
(§2) Briefly, a 96 well plate was coated with human A1AT capture antibody overnight at room temperature (1:180 dilution from stock, 100 μl final volume/well). The capture antibody was then removed and wells washed three times with 300 μl wash buffer (0.05% Tween 20 in PBS) and then 200 μl reagent diluent ([…]) was incubated in each well for 1 h at room temperature. Diluted samples, standards (125, 250, 500, 1000, 2000, 4000 and 8000 pg/ml A1AT) or blanks were then added to each well in duplicate and the plates were covered with a plate sealer and left at room temperature for 2 h. At the end of the sample incubation step, samples were removed and all wells washed as previously and 100 μl detection antibody (1:180 dilution from stock) was added to each well and incubated for a further 2 h at room temperature. Following incubation with detection antibody, supernatant was removed and wells were washed as previously and 100 μl streptavidin-HRP solution (1:200 dilution from stock) was added to each well for 20 min in the dark. After which, 50 μl stop solution (2M H2SO4) was added and optical density (OD) of each well was read at 450 nm with 570 nm blank subtracted from each well using a microplate reader. A 4 parameter logistic curve was constructed using GraphPad Prism 7 and A1AT concentrations were determined in each sample by interpolation from a standard curve and multiplying by the appropriate dilution factor.
The amount of human M A1AT secreted from transfected HEK-EBNA cells into the media was measured by ELISA. SAHA at 10 μM was used a positive control for all in vitro A1AT secretion experiments.

human Siiyama A1AT = target: T2, human Siiyama A1AT (Homo sapiens, UniProt P01009, S77F); test: A1AT cell secretion assay using HEK-Siiyama cells (ELISA); format: cell-based; conditions: 48 h; for secretion of Siiyama A1AT from HEK-Siiyama cells: 1 or 10 μM
T2 construct: expressed in transfected cells; host or cells: HEK-Siiyama cells (transfected HEK-EBNA)
T2 sequence (P01009 25-418 S77F): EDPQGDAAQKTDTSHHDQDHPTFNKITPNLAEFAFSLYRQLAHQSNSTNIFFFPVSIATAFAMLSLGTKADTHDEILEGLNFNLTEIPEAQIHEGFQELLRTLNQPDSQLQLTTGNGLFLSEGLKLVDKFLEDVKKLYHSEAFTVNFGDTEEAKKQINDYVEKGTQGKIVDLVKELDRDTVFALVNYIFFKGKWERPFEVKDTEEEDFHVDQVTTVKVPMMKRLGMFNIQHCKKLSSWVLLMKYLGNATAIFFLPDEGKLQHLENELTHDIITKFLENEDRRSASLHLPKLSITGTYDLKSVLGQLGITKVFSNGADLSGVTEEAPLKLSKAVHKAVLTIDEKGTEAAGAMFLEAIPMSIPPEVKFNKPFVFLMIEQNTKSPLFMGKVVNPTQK
Experimental: as §1, with “HEK-Siiyama” for “HEK-M”, “the human Siiyama A1AT gene,” for “M A1AT,”, “Example 1 (at 1 and 10 μM)” for “Examples 1-16”, “eight” for “six”, “A1/α1-antitrypsin” for “A1/α1 antitrypsin”
as §2, with “At the end of the sample incubation step, samples were removed and all wells washed as previously and 100 μl detection antibody (1:180 dilution from stock) was added to each well and incubated for a further 2 h at room temperature. Following incubation with detection antibody, supernatant was removed and wells were washed as previously and 100 μl streptavidin-HRP solution (1:200 dilution from stock) was added to each well for 20 min in the dark.” left out
The amount of human Siiyama A1AT secreted from transfected HEK-EBNA cells into the media was measured by ELISA. […]

human Z A1AT [1] = target: T3, human Z A1AT (Homo sapiens, UniProt P01009, E366K); test: A1AT cell secretion assay using HEK-Z cells (ELISA); format: cell-based; design: expressed in transfected cells; host or cells: HEK-Z cells (transfected HEK-EBNA); conditions: 48 h, supernatant ELISA
T3 sequence (P01009 25-418 E366K): as the sequence (P01009 25-418 S77F) above, with F53S, E342K counted along it
Experimental: HEK-Z cells, a human embryonic kidney cell line stably transfected with the human Z A1AT gene, were plated into 96 well plates (3.0×10^5 cells/ml with 200 μl of media/well) overnight at 37° C. in a humidified atmosphere containing 5% CO2. Following incubation cells were washed with 200 μl serum-free media three times and media was replaced with treatments in quadruplicate using serum-free media containing vehicle, 10 μM suberanilohydroxamic acid (SAHA) or the compounds of Examples 1-18 (at concentrations of 10, 33, 100 and 333 nM) for 48 h in a 37° C. incubator in a final volume of 200 μl. At the end of the incubation step the supernatants were removed from the wells, centrifuged at 1000×g at 4° C. for 10 min and were assayed for human A1AT levels by ELISA (Human Serpin A1/α1-antitrypsin duo set ELISA, R& D Systems, DY1268) per manufacturer's instructions.
as §2, with “At the end of the sample incubation step, samples were removed and all wells washed as previously and 100 μl detection antibody (1:180 dilution from stock) was added to each well and incubated for a further 2 h at room temperature. Following incubation with detection antibody, supernatant was removed and wells were washed as previously and 100 μl streptavidin-HRP solution (1:200 dilution from stock) was added to each well for 20 min in the dark.” left out
The amount of human A1AT secreted from transfected HEK-EBNA cells into the media was measured by ELISA. […]

human Z A1AT [2] = target: T3, human Z A1AT; test: Circulating human Z A1AT levels in huZ mouse (plasma ELISA); format: in vivo; design: expressed in transfected cells; host or cells: transgenic huZ mouse (line Z11.03, C57Bl/6), expressed in liver, measured in plasma; conditions: 5, 15 or 50 mg/kg twice a day by oral gavage for 14 days; plasma days 12, 13 and 14 vs basal
Source text: The huZ mouse (also referred to as the PiZZ mouse) is a transgenic mouse strain that contains multiple copies of the Z variant of the human A1AT gene, developed by two separate groups (Dycaico et al Science (1988) 242:1409-12) and Carlson et al J. Clin Invest (1989) 83:1183-90). HuZ mice are on a C57Bl/6 background and express the human Z A1AT protein in liver tissue. The mice used in this study are from the progeny of Carlson and colleagues (transgenic line Z11.03). […]
HuZ mice (n=4/group; male or female) with basal human Z A1AT plasma levels of between 200-600 μg/ml were treated with either vehicle or the compounds of Examples 1 or 17 at 5, 15 or 50 mg/kg twice a day by oral gavage for 14 consecutive days. […] Human Z A1AT levels in mouse plasma samples were measured by ELISA (Human Serpin A1/α1 antitrypsin duo set ELISA, R& D Systems, DY1268) per manufacturer's instructions.
Briefly, a 96 well plate was coated with human A1AT capture antibody overnight at room temperature (1:180 dilution from stock, 100 μl final volume/well). […] After which, 50 μl stop solution (2M H2SO4) was added and optical density (OD) of each well was read at 450 nm with 570 nm blank subtracted from each well using a microplate reader. […]

T1 sequence (P01009 25-418): as the sequence (P01009 25-418 S77F) above, with F53S counted along it

SMILES	secretion of human M A1AT from HEK-M cells (human M A1AT)	Median A1AT increase over vehicle at 300 nM (human Z A1AT [1])	further results
O=C(O)C1CCN(S(=O)(=O)c2ccccc2C(F)(F)F)CC1 [Example 10, 1-((2-(Trifluoromethyl)phenyl)sulfonyl)piperidine-4-carboxylic acid]	did not lead to an increase	–	–
O=C(CCCCCCC(=O)Nc1ccccc1)NO [SAHA, suberanilohydroxamic acid, reference compound]	–	–	Siiyama A1AT secretion from HEK-Siiyama cells (positive control) (human Siiyama A1AT; 10 μM): stimulated an increase
O=C(O)C1CCN(S(=O)(=O)c2cccc(Cl)c2Cl)CC1 [Example 4, 1-((2,3-Dichlorophenyl)sulfonyl)piperidine-4-carboxylic acid]	did not lead to an increase	–	–
O=C(O)[C@H]1CCCN(S(=O)(=O)c2ccccc2C(F)(F)F)C1 [Example 17, (S)-1-((2-(Trinfluoromethyl)phenyl)sulfonyl)piperidine-3-carboxylic acid]	did not lead to an increase	310	secretion of Siiyama A1AT from HEK-Siiyama cells (human Siiyama A1AT): did not stimulate secretion; secretion of human Z A1AT compared to baseline levels in huZ mice (human Z A1AT [2]): stimulated secretion
O=C(O)C1CCN(S(=O)(=O)c2ccc(C(F)(F)F)cc2)CC1 [Example 12, 1-((4-(Trifluoromethyl)phenyl)sulfonyl)piperidine-4-carboxylic add]	–	200	–
O=C(O)C1CCN(S(=O)(=O)c2cccc(Cl)c2)CC1 [Example 3, 1-((3-Chlorophenyl)sulfonyl)piperidine-4-carboxylic acid]	did not lead to an increase	–	–
O=C(O)[C@@H]1CCCN(S(=O)(=O)c2ccccc2C(F)(F)F)C1 [Example 18, (R)-1-((2-(Trifluoromethyl)phenyl)sulfonyl)piperidine-3-carboxylic acid]	did not lead to an increase	–	–
O=C(O)[C@H]1CCN(S(=O)(=O)c2ccccc2C(F)(F)F)C1 [Example 15, (S)-1-((2-(Trinfluoromethyl)phenyl)sulfonyl)pyrrolidine-3-carboxylic acid]	–	230	–
O=C(O)C1CCN(S(=O)(=O)c2cccc3cccnc23)CC1 [Example 1, 1-(Quinolin-8-ylsulfonyl)piperidine-4-carboxylic acid]	did not lead to an increase	–	secretion of Siiyama A1AT from HEK-Siiyama cells (human Siiyama A1AT): did not stimulate secretion; secretion of human Z A1AT compared to baseline levels in huZ mice (human Z A1AT [2]): stimulated secretion
